# In patent US20240145031A1, “Methods and devices for drug repositioning and drug repurposing as nuclear receptor modulators” (Precision Medicine Lab, priority 2022, published 2024):
# Like-named read-outs stand apart in the source and are kept apart here.
# Key:
# [1] = target: T1, glucocorticoid receptor recombinant human protein, ligand binding domain (LBD) (Homo sapiens, UniProt P04150); assay: nuclear receptor cofactor recruitment peptide array (70 coregulator peptides), ligand induced cofactor peptide interaction profiling; format: biochemical; conditions: example 3, weight factors of table 7
# T1 construct: purchased Thermo Fisher Scientific A15668
# T1 sequence (P04150 524-758 limits assumed): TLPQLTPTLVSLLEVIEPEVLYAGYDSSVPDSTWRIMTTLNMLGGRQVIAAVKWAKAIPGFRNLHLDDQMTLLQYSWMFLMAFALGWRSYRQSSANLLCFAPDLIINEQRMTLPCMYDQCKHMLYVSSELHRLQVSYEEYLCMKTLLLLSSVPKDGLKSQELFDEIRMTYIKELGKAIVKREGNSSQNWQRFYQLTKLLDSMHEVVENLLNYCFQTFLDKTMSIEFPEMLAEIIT
# [2] = target: T1, glucocorticoid receptor recombinant human protein, ligand binding domain (LBD); assay: as above; format: biochemical; conditions: for weighted log fold change: example 3, weight factors of table 7
# Experimental: Interactions between the glucocorticoid receptor ligand binding domain and the selected drugs for repurposing and coregulator peptides were determined using the method as described by Zalachoras et al 2013^xxvii Each peptide array consisting of 70 coregulator peptides as described in table 1 were incubated with a reaction mixture of 1 nM purified glucocorticoid receptor recombinant human protein, ligand binding domain (LBD), (Thermo Fisher Scientific, cat #A15668), ALEXA488-conjugated anti-GST antibody and buffer F (PV4689, A-11131, and PV4547; Invitrogen). […] For ligand induced cofactor peptide interaction profiling the set of repurposing drugs were tested at a concentration of 0.05 mM compared to solvent (2% DMSO in water). Incubation was performed at 20° C. on the cofactor peptide array. Glucocorticoid receptor binding to each peptide on the array, reflected by fluorescent signal, was quantified by image analysis using R-based software (Precision Medicine Lab). The 70 coregulator peptides used represent a range of coregulator nuclear receptor-boxes known to interact with the glucocorticoid receptor and other nuclear receptors. The binding profiles were generated for glucocorticoid receptor-LBD treated with the repurposing drugs vs cortisol.
# The R2 is calculated using the data for each of the 70 cofactor peptides using the same weight.
# In this example a weight factor was applied on the log fold change data of example 1 to determine the similarities between the tested repositioning drugs versus cortisol using the coefficient of determination, R2, between the weighted log fold change data of the tested repurposing drug to the positive control, cortisol. […] In this example 14 cofactor peptides were used (table 3).
compound,measurement,setting,value
"C[C@]12CCC(=O)C=C1CC[C@@H]1[C@@H]2[C@@H](O)C[C@@]2(C)[C@H]1CC[C@]2(O)C(=O)CO [PC, Cortisol]",weighted log fold change,[1]; peptide 22 NCOA1_1421_1441,1.715
same,weighted log fold change,[1]; peptide 31 NCOA3_726_747,0.515
same,weighted log fold change,[1]; peptide 39 NR0B2_107_128,0.769
same,weighted log fold change,[1]; peptide 42 NRIP1_369_390,0.128
same,weighted log fold change,[1]; peptide 45 NRIP1_810_831,0.057
same,"binding to coregulator peptide no 22 NCOA1_1421_1444 compared to the negative control (NC), DMSO","[2]; FIG. 2, 0.05 mM",increased binding
same,weighted log fold change,[2]; peptide 24 NCOA1_738_759,0.168
same,weighted log fold change,[2]; peptide 26 NCOA2_679_700,0.056
same,weighted log fold change,[2]; peptide 27 NCOA2_734_755,0.366
same,weighted log fold change,[2]; peptide 52 PELP1_21_42,0.028
same,weighted log fold change,[2]; peptide 58 PRGC1_134_154,0.835
same,weighted log fold change,[2]; peptide 59 PRGC2_146_166,0.113
same,weighted log fold change,[2]; peptide 63 TIF1A_748_769,0.058
same,weighted log fold change,[2]; peptide 68 UBE3A_650_671,0.357
same,weighted log fold change,[2]; peptide 70 ZNHI3_90_111,0.025
same,log fold change,"[2]; example 4, weight factor of 1, peptide 11 IKBB_278_299",0.611
same,log fold change,"[2]; example 4, weight factor of 1, peptide 27 NCOA2_734_755",1.465
same,log fold change,"[2]; example 4, weight factor of 1, peptide 59 PRGC2_146_166",0.902
same,log fold change,"[2]; example 4, weight factor of 1, peptide 68 UBE3A_650_671",1.430
same,log fold change,"[2]; peptide 1 ANDR_11_32, 0.05 mM vs solvent (2% DMSO)",0.549
same,log fold change,"[2]; peptide 2 CBP_2056_2077, 0.05 mM vs solvent (2% DMSO)",0.473
same,log fold change,"[2]; peptide 3 CENPR_159_177, 0.05 mM vs solvent (2% DMSO)",0.669
same,log fold change,"[2]; peptide 4 CHD9_1024_1045, 0.05 mM vs solvent (2% DMSO)",0.375
same,log fold change,"[2]; peptide 5 CNOT1_141_162, 0.05 mM vs solvent (2% DMSO)",0.446
same,log fold change,"[2]; peptide 6 CNOT1_558_579, 0.05 mM vs solvent (2% DMSO)",0.386
same,log fold change,"[2]; peptide 7 DHX30_49_70, 0.05 mM vs solvent (2% DMSO)",0.446
same,log fold change,"[2]; peptide 8 EP300_2040_2061, 0.05 mM vs solvent (2% DMSO)",0.383
same,log fold change,"[2]; peptide 9 EP300_70_91, 0.05 mM vs solvent (2% DMSO)",0.813
same,log fold change,"[2]; peptide 11 IKBB_278_299, 0.05 mM vs solvent (2% DMSO)",0.611
same,log fold change,"[2]; peptide 13 KMT2D_2674_2695, 0.05 mM vs solvent (2% DMSO)",0.589
same,log fold change,"[2]; peptide 14 LCOR_41_62, 0.05 mM vs solvent (2% DMSO)",1.238
same,log fold change,"[2]; peptide 15 MAPE_250_271, 0.05 mM vs solvent (2% DMSO)",0.090
same,log fold change,"[2]; peptide 16 MAPE_301_322, 0.05 mM vs solvent (2% DMSO)",−0.294
same,log fold change,"[2]; peptide 17 MED1_593_614, 0.05 mM vs solvent (2% DMSO)",0.949
same,log fold change,"[2]; peptide 18 MEN1_256_277, 0.05 mM vs solvent (2% DMSO)",0.192
same,log fold change,"[2]; peptide 19 MGMT_87_108, 0.05 mM vs solvent (2% DMSO)",0.250
same,log fold change,"[2]; peptide 20 MLL2_4176_4197, 0.05 mM vs solvent (2% DMSO)",0.650
same,log fold change,"[2]; peptide 21 MLL2_4703_4724, 0.05 mM vs solvent (2% DMSO)",0.531
same,log fold change,"[2]; peptide 22 NCOA1_1421_1441, 0.05 mM vs solvent (2% DMSO)",1.715
same,log fold change,"[2]; peptide 23 NCOA1_679_700, 0.05 mM vs solvent (2% DMSO)",1.097
same,log fold change,"[2]; peptide 24 NCOA1_738_759, 0.05 mM vs solvent (2% DMSO)",1.340
same,log fold change,"[2]; peptide 25 NCOA2_630_651, 0.05 mM vs solvent (2% DMSO)",1.253
same,log fold change,"[2]; peptide 26 NCOA2_679_700, 0.05 mM vs solvent (2% DMSO)",1.777
same,log fold change,"[2]; peptide 27 NCOA2_734_755, 0.05 mM vs solvent (2% DMSO)",1.465
same,log fold change,"[2]; peptide 28 NCOA2_867_888, 0.05 mM vs solvent (2% DMSO)",0.263
same,log fold change,"[2]; peptide 29 NCOA3_610_631, 0.05 mM vs solvent (2% DMSO)",1.176
same,log fold change,"[2]; peptide 30 NCOA3_674_695, 0.05 mM vs solvent (2% DMSO)",0.197
same,log fold change,"[2]; peptide 31 NCOA3_726_747, 0.05 mM vs solvent (2% DMSO)",1.029
same,log fold change,"[2]; peptide 32 NCOA4_316_337, 0.05 mM vs solvent (2% DMSO)",0.839
same,log fold change,"[2]; peptide 34 NCOR1_1925_1946, 0.05 mM vs solvent (2% DMSO)",0.398
same,log fold change,"[2]; peptide 35 NCOR1_2040_2061, 0.05 mM vs solvent (2% DMSO)",0.391
same,log fold change,"[2]; peptide 36 NELFB_329_350, 0.05 mM vs solvent (2% DMSO)",0.195
same,log fold change,"[2]; peptide 38 NR0B1_2_23, 0.05 mM vs solvent (2% DMSO)",0.415
same,log fold change,"[2]; peptide 39 NR0B2_107_128, 0.05 mM vs solvent (2% DMSO)",1.538
same,log fold change,"[2]; peptide 41 NRIP1_174_195, 0.05 mM vs solvent (2% DMSO)",0.213
same,log fold change,"[2]; peptide 42 NRIP1_369_390, 0.05 mM vs solvent (2% DMSO)",1.027
same,log fold change,"[2]; peptide 43 NRIP1_489_510, 0.05 mM vs solvent (2% DMSO)",0.954
same,log fold change,"[2]; peptide 44 NRIP1_701_722, 0.05 mM vs solvent (2% DMSO)",0.609
same,log fold change,"[2]; peptide 45 NRIP1_810_831, 0.05 mM vs solvent (2% DMSO)",0.909
same,log fold change,"[2]; peptide 46 NRIP1_925_946, 0.05 mM vs solvent (2% DMSO)",0.970
same,log fold change,"[2]; peptide 47 NSD1_895_916, 0.05 mM vs solvent (2% DMSO)",0.886
same,log fold change,"[2]; peptide 48 PAGR1_103_124, 0.05 mM vs solvent (2% DMSO)",1.057
same,log fold change,"[2]; peptide 49 PAK6_249_270, 0.05 mM vs solvent (2% DMSO)",0.362
same,log fold change,"[2]; peptide 50 PCAF_179_200, 0.05 mM vs solvent (2% DMSO)",0.771
same,log fold change,"[2]; peptide 51 PELP1_169_190, 0.05 mM vs solvent (2% DMSO)",0.496
same,log fold change,"[2]; peptide 52 PELP1_21_42, 0.05 mM vs solvent (2% DMSO)",0.888
same,log fold change,"[2]; peptide 53 PELP1_447_468, 0.05 mM vs solvent (2% DMSO)",0.771
same,log fold change,"[2]; peptide 54 PIAS2_7_28, 0.05 mM vs solvent (2% DMSO)",0.383
same,log fold change,"[2]; peptide 55 PNRC1_306_327, 0.05 mM vs solvent (2% DMSO)",0.568
same,log fold change,"[2]; peptide 56 PPRC1_152_173, 0.05 mM vs solvent (2% DMSO)",0.380
same,log fold change,"[2]; peptide 57 PR285_1106_1127, 0.05 mM vs solvent (2% DMSO)",1.167
same,log fold change,"[2]; peptide 58 PRGC1_134_154, 0.05 mM vs solvent (2% DMSO)",1.669
same,log fold change,"[2]; peptide 59 PRGC2_146_166, 0.05 mM vs solvent (2% DMSO)",0.902
same,log fold change,"[2]; peptide 60 PRGC2_338_358, 0.05 mM vs solvent (2% DMSO)",1.230
same,log fold change,"[2]; peptide 61 PROX1_58_79, 0.05 mM vs solvent (2% DMSO)",0.547
same,log fold change,"[2]; peptide 62 RAD9A_349_370, 0.05 mM vs solvent (2% DMSO)",0.503
same,log fold change,"[2]; peptide 63 TIF1A_748_769, 0.05 mM vs solvent (2% DMSO)",0.930
same,log fold change,"[2]; peptide 64 TIP60_477_498, 0.05 mM vs solvent (2% DMSO)",0.672
same,log fold change,"[2]; peptide 65 TREF1_169_190, 0.05 mM vs solvent (2% DMSO)",0.886
same,log fold change,"[2]; peptide 66 TRRAP_972_993, 0.05 mM vs solvent (2% DMSO)",1.371
same,log fold change,"[2]; peptide 67 TRXR1_133_154, 0.05 mM vs solvent (2% DMSO)",0.623
same,log fold change,"[2]; peptide 68 UBE3A_650_671, 0.05 mM vs solvent (2% DMSO)",1.430
same,log fold change,"[2]; peptide 69 WIPI1_120_141, 0.05 mM vs solvent (2% DMSO)",1.049
same,log fold change,"[2]; peptide 70 ZNHI3_90_111, 0.05 mM vs solvent (2% DMSO)",0.814
Dexamethasone [Drug 3],"binding to coregulator peptide no 22 NCOA1_1421_1444 compared to the negative control (NC), DMSO",[2],increased binding
